According to patent US4326054A, “Cleomycins and process for producing same” (Zaidan Hojin Biseibutsu Kagaku Kenkyu Kai, priority 1979, dated 1982):

Test system: Mycobacterium smegmatis ATCC 607
Experiment: Antimicrobial activity, agar plate-cylinder method, bleomycin A2 as standard (1,000 u/mg)
Assay type: cell-based
Details: Table 5; copper-free form; relative to bleomycin A2 = 1,000 u/mg
Description: Typical examples of the biological activities measured on cleomycins (copper-free form) are illustrated below.
Comparison was made with the relevant antibiotics bleomycins. The relative antimicrobial potency (u/mg) against Mycobacterium smegmatis ATCC 607 was measured by agar plate-cylinder method using bleomycin A2 as a standard (1,000 u/mg).
(Note: The antimicrobial potency was determined by taking bleomycin
A2 as 1,000 μ/mg and using Mycobacterium smegmatis ATCC 607 as a
test bacterium. Herinafter, the same was applied.)

**Q.** With `Cc1c(N)nc(C(CC(N)=O)NCC(N)C(N)=O)nc1C(=O)NC(C(=O)NC(C)C(O)C(C)C(=O)NC(C(=O)NCCc1nc(-c2nc(C(=O)NCCCCNC(=N)N)cs2)cs1)C1(O)CC1)C(OC1OC(CO)C(O)C(O)C1OC1OC(CO)C(O)C(OC(N)=O)C1O)c1cnc[nH]1` (centres unmarked) [Compound No. 2, 4-guanidinobutylaminocleomycin] as the molecule, how does the Antimicrobiral potency read?
**A.** 3,262 u/mg

**Q.** For `Cc1c(N)nc(C(CC(N)=O)NCC(N)C(N)=O)nc1C(=O)NC(C(=O)NC(C)C(O)C(C)C(=O)NC(C(=O)NCCc1nc(-c2nc(C(=O)NCCN)cs2)cs1)C1(O)CC1)C(OC1OC(CO)C(O)C(O)C1OC1OC(CO)C(O)C(OC(N)=O)C1O)c1cnc[nH]1` (centres unmarked) [Compound No. 3, 2-aminoethylaminocleomycin], which Antimicrobiral potency is on record?
**A.** 2,760 u/mg

**Q.** Which Antimicrobiral potency does the source give for `Cc1c(N)nc(C(CC(N)=O)NCC(N)C(N)=O)nc1C(=O)NC(C(=O)NC(C)C(O)C(C)C(=O)NC(C(=O)NCCc1nc(-c2nc(C(=O)NCCCN)cs2)cs1)C1(O)CC1)C(OC1OC(CO)C(O)C(O)C1OC1OC(CO)C(O)C(OC(N)=O)C1O)c1cnc[nH]1` (centres unmarked) [compound 4, 3-aminopropylaminocleomycin] here?
**A.** 2,150 u/mg

**Q.** With `Cc1c(N)nc(C(CC(N)=O)NCC(N)C(N)=O)nc1C(=O)NC(C(=O)NC(C)C(O)C(C)C(=O)NC(C(=O)NCCc1nc(-c2nc(C(=O)NCCCCN)cs2)cs1)C1(O)CC1)C(OC1OC(CO)C(O)C(O)C1OC1OC(CO)C(O)C(OC(N)=O)C1O)c1cnc[nH]1` (centres unmarked) [compound 5, 4-aminobutylaminocleomycin] as the molecule, how does the Antimicrobiral potency read?
**A.** 1,935 u/mg

**Q.** Which Antimicrobiral potency does the source give for `Cc1c(N)nc(C(CC(N)=O)NCC(N)C(N)=O)nc1C(=O)NC(C(=O)NC(C)C(O)C(C)C(=O)NC(C(=O)NCCc1nc(-c2nc(C(=O)NCCCNCCCCN)cs2)cs1)C1(O)CC1)C(OC1OC(CO)C(O)C(O)C1OC1OC(CO)C(O)C(OC(N)=O)C1O)c1cnc[nH]1` (centres unmarked) [compound 6, 3-(4-aminobutylamino)propylaminocleomycin] here?
**A.** 3,575 u/mg

**Q.** Which Antimicrobiral potency does the source give for `Cc1c(N)nc(C(CC(N)=O)NCC(N)C(N)=O)nc1C(=O)NC(C(=O)NC(C)C(O)C(C)C(=O)NC(C(=O)NCCc1nc(-c2nc(C(=O)NCCNCC(C)O)cs2)cs1)C1(O)CC1)C(OC1OC(CO)C(O)C(O)C1OC1OC(CO)C(O)C(OC(N)=O)C1O)c1cnc[nH]1` (centres unmarked) [compound 12, 2-(2-hydroxypropylamino)ethylaminocleomycin] here?
**A.** 2,280 u/mg

**Q.** Which Antimicrobiral potency does the source give for `Cc1c(N)nc(C(CC(N)=O)NCC(N)C(N)=O)nc1C(=O)NC(C(=O)NC(C)C(O)C(C)C(=O)NC(C(=O)NCCc1nc(-c2nc(C(=O)NCCCN3CCNCC3)cs2)cs1)C1(O)CC1)C(OC1OC(CO)C(O)C(O)C1OC1OC(CO)C(O)C(OC(N)=O)C1O)c1cnc[nH]1` (centres unmarked) [compound 13, 3-(1-piperazinyl)propylaminocleomycin] here?
**A.** 980 u/mg

**Q.** For `Cc1c(N)nc(C(CC(N)=O)NCC(N)C(N)=O)nc1C(=O)NC(C(=O)NC(C)C(O)C(C)C(=O)NC(C(=O)NCCc1nc(-c2nc(C(=O)NCCCNCCCNC(C)c3ccccc3)cs2)cs1)C1(O)CC1)C(OC1OC(CO)C(O)C(O)C1OC1OC(CO)C(O)C(OC(N)=O)C1O)c1cnc[nH]1` (centres unmarked) [compound 14, 3-[3-(1-phenylethylamino)propylamino]propylaminocleomycin], which Antimicrobiral potency is on record?
**A.** 11,420 u/mg

**Q.** For `Cc1c(N)nc(C(CC(N)=O)NCC(N)C(N)=O)nc1C(=O)NC(C(=O)NC(C)C(O)C(C)C(=O)NC(C(=O)NCCc1nc(-c2nc(C(=O)NCCC[N+](C)(C)C)cs2)cs1)C1(O)CC1)C(OC1OC(CO)C(O)C(O)C1OC1OC(CO)C(O)C(OC(N)=O)C1O)c1cnc[nH]1` (centres unmarked) [compound 18, 3-(N,N,N-trimethylamino)propylaminocleomycin], which Antimicrobiral potency is on record?
**A.** 878 u/mg

**Q.** Which Antimicrobiral potency does the source give for `Cc1c(N)nc(C(CC(N)=O)NCC(N)C(N)=O)nc1C(=O)NC(C(=O)NC(C)C(O)C(C)C(=O)NC(C(=O)NCCc1nc(-c2nc(C(=O)NCCCNCCCN(C)C)cs2)cs1)C1(O)CC1)C(OC1OC(CO)C(O)C(O)C1OC1OC(CO)C(O)C(OC(N)=O)C1O)c1cnc[nH]1` (centres unmarked) [compound 19, 3-[3-(N,N-dimethylamino)propyl]propylaminocleomycin] here?
**A.** 2,004 u/mg

**Q.** Which Antimicrobiral potency does the source give for `Cc1c(N)nc(C(CC(N)=O)NCC(N)C(N)=O)nc1C(=O)NC(C(=O)NC(C)C(O)C(C)C(=O)NC(C(=O)NCCc1nc(-c2nc(C(=O)NCCCNC(C)CCN)cs2)cs1)C1(O)CC1)C(OC1OC(CO)C(O)C(O)C1OC1OC(CO)C(O)C(OC(N)=O)C1O)c1cnc[nH]1` (centres unmarked) [compound 21, 3-(3-amino-1-methylpropylamino)propylaminocleomycin] here?
**A.** 2,620 u/mg

**Q.** With `Cc1c(N)nc(C(CC(N)=O)NCC(N)C(N)=O)nc1C(=O)NC(C(=O)NC(C)C(O)C(C)C(=O)NC(C(=O)NCCc1nc(-c2nc(C(=O)NCCCN3CCOCC3)cs2)cs1)C1(O)CC1)C(OC1OC(CO)C(O)C(O)C1OC1OC(CO)C(O)C(OC(N)=O)C1O)c1cnc[nH]1` (centres unmarked) [compound 24, 3-morpholinopropylaminocleomycin] as the molecule, how does the Antimicrobiral potency read?
**A.** 800 u/mg

**Q.** With `Cc1c(N)nc(C(CC(N)=O)NCC(N)C(N)=O)nc1C(=O)NC(C(=O)NC(C)C(O)C(C)C(=O)NC(C(=O)NCCc1nc(-c2nc(C(=O)NCCCNCCCN3CCCC3)cs2)cs1)C1(O)CC1)C(OC1OC(CO)C(O)C(O)C1OC1OC(CO)C(O)C(OC(N)=O)C1O)c1cnc[nH]1` (centres unmarked) [compound 26, 3-[3-(1-pyrrolidinyl)propylamino]propylaminocleomycin] as the molecule, how does the Antimicrobiral potency read?
**A.** 3,590 u/mg

**Q.** For `Cc1c(N)nc(C(CC(N)=O)NCC(N)C(N)=O)nc1C(=O)NC(C(=O)NC(C)C(O)C(C)C(=O)NC(C(=O)NCCc1nc(-c2nc(C(=O)NCCCNCCCN3CCOCC3)cs2)cs1)C1(O)CC1)C(OC1OC(CO)C(O)C(O)C1OC1OC(CO)C(O)C(OC(N)=O)C1O)c1cnc[nH]1` (centres unmarked) [compound 28, 3-(3-morpholinopropylamino)propylaminocleomycin], which Antimicrobiral potency is on record?
**A.** 1,715 u/mg

**Q.** With `COCCCNCCCNC(=O)c1csc(-c2csc(CCNC(=O)C(NC(=O)C(C)C(O)C(C)NC(=O)C(NC(=O)c3nc(C(CC(N)=O)NCC(N)C(N)=O)nc(N)c3C)C(OC3OC(CO)C(O)C(O)C3OC3OC(CO)C(O)C(OC(N)=O)C3O)c3cnc[nH]3)C3(O)CC3)n2)n1` (centres unmarked) [compound 31, 3-(3-methoxypropylamino)propylaminocleomycin] as the molecule, how does the Antimicrobiral potency read?
**A.** 1,869 u/mg

**Q.** With `Cc1c(N)nc(C(CC(N)=O)NCC(N)C(N)=O)nc1C(=O)NC(C(=O)NC(C)C(O)C(C)C(=O)NC(C(=O)NCCc1nc(-c2nc(C(=O)NCCCNCc3ccccc3)cs2)cs1)C1(O)CC1)C(OC1OC(CO)C(O)C(O)C1OC1OC(CO)C(O)C(OC(N)=O)C1O)c1cnc[nH]1` (centres unmarked) [compound 32, 3-benzylaminopropylaminocleomycin] as the molecule, how does the Antimicrobiral potency read?
**A.** 6.977 u/mg

**Q.** For `Cc1c(N)nc(C(CC(N)=O)NCC(N)C(N)=O)nc1C(=O)NC(C(=O)NC(C)C(O)C(C)C(=O)NC(C(=O)NCCc1nc(-c2nc(C(=O)NCCCNCCCNC3CCCCC3)cs2)cs1)C1(O)CC1)C(OC1OC(CO)C(O)C(O)C1OC1OC(CO)C(O)C(OC(N)=O)C1O)c1cnc[nH]1` (centres unmarked) [compound 37, 3-(3-cyclohexylaminopropylamino)propylaminocleomycin], which Antimicrobiral potency is on record?
**A.** 14,784 u/mg

**Q.** Which Antimicrobiral potency does the source give for `Cc1c(N)nc(C(CC(N)=O)NCC(N)C(N)=O)nc1C(=O)NC(C(=O)NC(C)C(O)C(C)C(=O)NC(C(=O)NCCc1nc(-c2nc(C(=O)NCCc3cnc[nH]3)cs2)cs1)C1(O)CC1)C(OC1OC(CO)C(O)C(O)C1OC1OC(CO)C(O)C(OC(N)=O)C1O)c1cnc[nH]1` (centres unmarked) [compound 40, 2-(4-imidazolyl)ethylaminocleomycin] here?
**A.** 1,147 u/mg

**Q.** For `Cc1c(N)nc(C(CC(N)=O)NCC(N)C(N)=O)nc1C(=O)NC(C(=O)NC(C)C(O)C(C)C(=O)NC(C(=O)NCCc1nc(-c2nc(C(=O)NCCCNCCc3ccccn3)cs2)cs1)C1(O)CC1)C(OC1OC(CO)C(O)C(O)C1OC1OC(CO)C(O)C(OC(N)=O)C1O)c1cnc[nH]1` (centres unmarked) [compound 41, 3-[2-(2-pyridyl)ethylamino]propylaminocleomycin], which Antimicrobiral potency is on record?
**A.** 6,068 u/mg

**Q.** With `Cc1c(N)nc(C(CC(N)=O)NCC(N)C(N)=O)nc1C(=O)NC(C(=O)NC(C)C(O)C(C)C(=O)NC(C(=O)NCCc1nc(-c2nc(C(=O)NCCCNCCCCCCO)cs2)cs1)C1(O)CC1)C(OC1OC(CO)C(O)C(O)C1OC1OC(CO)C(O)C(OC(N)=O)C1O)c1cnc[nH]1` (centres unmarked) [compound 42, 3-(6-hydroxyhexylamino)propylaminocleomycin] as the molecule, how does the Antimicrobiral potency read?
**A.** 4,806 u/mg

**Q.** For `Cc1c(N)nc(C(CC(N)=O)NCC(N)C(N)=O)nc1C(=O)NC(C(=O)NC(C)C(O)C(C)C(=O)NC(C(=O)NCCc1nc(-c2nc(C(=O)NCCCNCCCN)cs2)cs1)C1(O)CC1)C(OC1OC(CO)C(O)C(O)C1OC1OC(CO)C(O)C(OC(N)=O)C1O)c1cnc[nH]1` (centres unmarked) [compound 43, 3-(3-aminopropylamino)propylaminocleomycin], which Antimicrobiral potency is on record?
**A.** 2,790 u/mg

**Q.** For `Cc1c(N)nc(C(CC(N)=O)NCC(N)C(N)=O)nc1C(=O)NC(C(=O)NC(C)C(O)C(C)C(=O)NC(C(=O)NCCc1nc(-c2nc(C(=O)NCCCNCCCCCCN)cs2)cs1)C1(O)CC1)C(OC1OC(CO)C(O)C(O)C1OC1OC(CO)C(O)C(OC(N)=O)C1O)c1cnc[nH]1` (centres unmarked) [compound 44, 3-(6-aminohexylamino)propylaminocleomycin], which Antimicrobiral potency is on record?
**A.** 3,520 u/mg

**Q.** For `Cc1c(N)nc(C(CC(N)=O)NCC(N)C(N)=O)nc1C(=O)NC(C(=O)NC(C)C(O)C(C)C(=O)NC(C(=O)NCCc1nc(-c2nc(C(=O)NCCCNCCCNCc3ccccc3)cs2)cs1)C1(O)CC1)C(OC1OC(CO)C(O)C(O)C1OC1OC(CO)C(O)C(OC(N)=O)C1O)c1cnc[nH]1` (centres unmarked) [compound 45, 3-(3-benzylaminopropylamino)propylaminocleomycin], which Antimicrobiral potency is on record?
**A.** 8,400 u/mg

**Q.** Which Antimicrobiral potency does the source give for `Cc1c(N)nc(C(CC(N)=O)NCC(N)C(N)=O)nc1C(=O)NC(C(=O)NC(C)C(O)C(C)C(=O)NC(C(=O)NCCc1nc(-c2nc(C(=O)NCCCN(C)CCCNCc3ccccc3)cs2)cs1)C1(O)CC1)C(OC1OC(CO)C(O)C(O)C1OC1OC(CO)C(O)C(OC(N)=O)C1O)c1cnc[nH]1` (centres unmarked) [compound 46, 3-[N-methyl-N-(3-benzylaminopropyl)]aminopropylcleomycin] here?
**A.** 7,660 u/mg

Test system: not listed separately
Experiment: Solubility (physical and chemical properties, Tables 4-1 and 4-2)
Details: hydrochloride, copper-containing form; also soluble in dimethylformamide, dimethylsulfoxide, and methanol

**Q.** Which Solubility does the source give for `Cc1c(N)nc(C(CC(N)=O)NCC(N)C(N)=O)nc1C(=O)NC(C(=O)NC(C)C(O)C(C)C(=O)NC(C(=O)NCCc1nc(-c2nc(C(=O)NCCCCNC(=N)N)cs2)cs1)C1(O)CC1)C(OC1OC(CO)C(O)C(O)C1OC1OC(CO)C(O)C(OC(N)=O)C1O)c1cnc[nH]1` (centres unmarked) [Compound No. 2, 4-guanidinobutylaminocleomycin] here?
**A.** Soluble in water

Same assay, conditions: hydrochloride, copper-free form; also soluble in dimethylformamide, dimethylsulfoxide, and methanol

**Q.** For `Cc1c(N)nc(C(CC(N)=O)NCC(N)C(N)=O)nc1C(=O)NC(C(=O)NC(C)C(O)C(C)C(=O)NC(C(=O)NCCc1nc(-c2nc(C(=O)NCCCCNC(=N)N)cs2)cs1)C1(O)CC1)C(OC1OC(CO)C(O)C(O)C1OC1OC(CO)C(O)C(OC(N)=O)C1O)c1cnc[nH]1` (centres unmarked) [Compound No. 2, 4-guanidinobutylaminocleomycin], which Solubility is on record?
**A.** Soluble in water
